{
  "source": "patent US7666985B2",
  "about": "“HLA-A24-restricted cancer antigen peptides” (International Institute of Cancer Immunology, Inc., priority 2002, dated 2010)",
  "key": {"[1]": {"system": "Jurkat-A2402/K^b cells pulsed with the peptide", "experiment": "CTL-inducing activity (immunogenicity) in HLA-A2402/K^b transgenic mouse, 51Cr release assay", "format": "in vivo", "conditions": "for immunogenicity (activity to induce CTLs; cytotoxic activity, % Specific Lysis): HLA-A2402/K^b transgenic mice (three per peptide) immunized s.c. with peptide + helper peptide in IFA, splenocytes stimulated in vitro 6 days, E/T ratio of 80; for immunogenicity (activity to induce CTLs; cytotoxic activity, % Specific Lysis) / induction of specific CTLs (cytotoxic activity, % Specific Lysis): peptide-pulsed vs non-pulsed Jurkat-A2402/K^b targets; for induction of specific CTLs (cytotoxic activity, % Specific Lysis): Reference 9: transgenic mouse (04-1 line) immunized with known HLA-A24-restricted cancer antigen peptide + helper peptide in IFA", "description": "Specifically, HER-2/neu780-788 and helper peptide were adjusted to 40 mg/ml and 20 mg/ml, respectively, in DMSO and diluted with a physiological saline to 2 mg/ml and 1 mg/ml, respectively. They were mixed with an equal amount of Freund's incomplete adjuvant (Wako Pure Chemical Industries, Ltd.) using a glass syringe to prepare a water-in-oil emulsion. The resultant preparation (200 μl) was injected into a transgenic mouse (04-1 line) subcutaneously in the base of the tail for immunization. Seven days after the initiation of experiment, the spleen was removed and grounded on the frosted part of glass slide, and splenocytes were recovered and prepared. A portion of the splenocytes undergone hemolysis treatment with an ACK buffer (0.15 M NH4Cl, 10 mM KHCO3, 0.1 mM EDTA, pH 7.2-7.4) was exposed to X ray radiation (2,000 rad), pulsed with the above-mentioned peptide (100 μg/ml) for 1 hour, and seeded into a 24-well plate at 0.7×10^6/well. Non-radiated, non-peptide-pulsed splenocytes (7×10^6/well) were added together and stimulated again at 37° C. (final concentration of peptide, 1 μg/ml). In vitro stimulation was carried out for 6 days in […] of a culture solution (CTM culture solution) containing 10% FCS, 10 mM HEPES, 20 mM L-glutamine, 1 mM sodium pyruvate, 1 mM MEM nonessential amino acid, 1% MEM vitamin and 55 μM 2-mercaptoethanol in RPMI 1640 medium.\nOn the other hand, Jurkat-A2402/K^b cells prepared in Reference 8 were labeled with ^51Cr (3.7 MBq/10^6 cells) and pulsed with the peptide above at 100 μg/ml for one hour. The labeling was carried out over 2 hours, and 1 hour after initiation of labeling, peptide was added to make the final concentration 100 μg/ml. Cells that were not pulsed with peptide were prepared as control target cells.\nCTL-inducing activity was determined by ^51Cr release assay (J. Immunol., 159:4753, 1997), wherein the previously prepared transgenic mouse splenocyte preparation was added to said Jurkat-A2402/K^b cells as the target cells.\nImmunogenicity of each antigen peptide was evaluated using the HLA-A2402/K^b transgenic mouse as constructed in aforementioned References. For the evaluation of each peptide for its immunogenicity, three transgenic mice were immunized with one peptide.\nSpecifically, each antigen peptide and the helper peptide were adjusted to 40 mg/ml and 20 mg/ml, respectively, in DMSO, and diluted with a physiological saline to 2 mg/ml and 1 mg/ml, respectively. They were then mixed with an equal amount of Freund's incomplete adjuvant (IFA) using a glass syringe to prepare a water-in-oil emulsion. The resultant emulsion (200 μl) was injected into the HLA-A2402/K^b transgenic mouse subcutaneously in the base of the tail for immunization. Seven days after the initiation of experiment, the spleen was removed and grounded on the frosted part of glass slide, and splenocytes were recovered and prepared. A portion of the splenocytes undergone hemolysis treatment with an ACK buffer (0.15 M NH4Cl, 10 mM KHCO3, 0.1 mM EDTA, pH 7.2-7.4) was exposed to X ray radiation (2,000 rad), then pulsed with the above-mentioned peptide (100 μg/ml) for 1 hour, and seeded into a 24-well plate at 7×10^6/well. Simultaneously, non-radiated, non-peptide-pulsed splenocytes (7×10^5/well) were added together and stimulated in vitro at 37° C. for 6 days. The in vitro stimulation was carried out in RPMI1640 medium supplemented with 10% FCS, 10 mM HEPES, 20 mM L-glutamine, 1 mM sodium pyruvate, 1 mM MEM nonessential amino acids, 1% MEM vitamin and 55 μM 2-mercaptoethanol.\nThen, the test for cytotoxic activity was conducted according to the conventional manner. Jurkat-A2402/K^b cells (Reference 8), and Jurkat-A2402/K^b cells pulsed with the peptide were used as target cells (T). These cells were labeled with ^51Cr (3.7 MBq/10^6 cells) and pulsed with the peptide at 100 μg/ml for one hour (The labeling was carried out over 2 hours, and 1 hour after the initiation of labeling, the peptide was added)."}, "[2]": {"system": "Jurkat-A2402/K^b cells pulsed with the natural or non-substituted peptide", "conditions": "for cross-reactivity of effector cells induced by the substituted peptide to the non-substituted peptide (cytotoxic activity): mice immunized with peptide M or N, targets pulsed with peptide M or N, with peptide H, or without any peptide", "description": "Cross-reactivity of the effector cells induced by the altered peptide to the natural peptide was tested. Effector cells induced by immunizing the mice with the altered form: peptide H (E) and target cells of the Jurkat-A2402/K^b cells pulsed with the natural form: peptide C (T) were combined and reacted at an E/T ratio of 80, and the cytotoxic activity was determined by ^51Cr release assay.\nCross-reactivity of the effector cells induced by the substituted peptide to the non-substituted peptide was tested. To effector cells induced by immunizing the mice with peptide M or N (E), target cells of the Jurkat-A2402/K^b cells pulsed with peptide M or N, with peptide H, or without any peptide (T) were reacted, and the cytotoxic activities of the effector cells were determined by ^51Cr release assay."}, "[3]": {"system": "C1R-A*2402 cells pulsed with the natural peptide of SEQ ID NO: 7", "conditions": "PBMC from HLA-A2402 positive healthy donors stimulated in vitro with 10 μM peptide; E/T ratio of 10, 20 or 40", "description": "(§1) Peripheral blood mononuclear cells were separated from healthy donors positive for HLA-A2402, and were placed into wells of a 24-well plate at 4×10^6 cells/well. To the wells, the natural peptide of SEQ ID NO: 7 or the altered peptide of SEQ ID NO: 3 was added at a concentration of 10 μM, and the mixture was incubated for a week in a culture medium comprising 45% RPMI1640, 45% AIV, 10% inactivated human AB serum, 1× nonessential amino acids, 25 ng/ml 2-mercaptoethanol, […] streptomycin, and 50 U/ml penicillin. After the incubation, the cells were adjusted to 2×10^6 cells/well, which were used as responder cells hereafter. On the other hand, peripheral blood mononuclear cells separated from the same healthy donors were incubated together with 10 μM of either of these peptides for 4 hours to accomplish the pulsing with peptide, and then radiated at 30 Gy. The cells were adjusted to 4×10^6 cells/well, which were used as stimulator cells hereafter.\n(§2) The responder cells and the stimulator cells thus prepared were mixed together, and the mixture was added with IL-2 at 30 U/ml, and incubated. A similar stimulation of the responder cells with the stimulator cells was conducted three times with an interval of a week. The cytotoxic activity in those cells thus obtained was determined by ^51Cr release assay wherein the cytotoxic activity was determined by reacting the C1R-A*2402 cells positive for an HLA-A24 (Int. J. Cancer, 81, p 387, 1999) labeled with ^51Cr that were pulsed with the natural peptide of SEQ ID NO: 7 as target cells (T), and the cells stimulated with the natural peptide of SEQ ID NO: 7 or the altered peptide of SEQ ID NO: 3 as described above (effector cells)(E) at an E/T ratio of 10, 20 or 40. […] Further, a lung cancer cell line positive for WT1 and positive for an HLA-A24, RERF-LC-AI cells; a lung cancer cell line positive for WT1 and negative for an HLA-A2402, 11-18 cells; or a lung cancer cell line negative for WT1 and positive for an HLA-A24, 11-18 cells were used as target cells to determine the cytotoxic activities of the effector cells described above in a similar manner by ^51Cr release assay."}, "[4]": {"system": "RERF-LC-AI cells", "conditions": "PBMC effector cells stimulated with peptide, targets RERF-LC-AI (WT1+, HLA-A24+) versus WT1+/HLA-A2402- and WT1-/HLA-A24+ lung cancer lines (LK87, 11-18)", "description": "as §1, §2"}},
  "note": "Entries after “also recorded” stand apart in the source; their conditions may differ. Like-named read-outs stand apart in the source and are kept apart here. Square brackets hold non-standard residues; d marks the D form. Ends that are not written are not given here. Abu = CC[C@H](N)C(=O)O",
  "data": [
    {"substance": "RWPSCQKKF [peptide C, natural peptide, positions 417 to 425 of human WT1]", "values": [
      {"measurement": "immunogenicity (activity to induce CTLs; cytotoxic activity, % Specific Lysis)", "setting": "[1]", "value": "have no immunogenicity; also recorded: no specific CTL was induced"}
    ]},
    {"substance": "MAGE-3195-203: known HLA-A24-restricted cancer antigen peptide derived from MAGE-3 [reference compound]", "values": [
      {"measurement": "induction of specific CTLs (cytotoxic activity, % Specific Lysis)", "setting": "[1]", "value": "induction of specific CTLs by stimulation with these known HLA-A24-resticted cancer antigen peptides was observed; also recorded: specific CTLs were induced"}
    ]},
    {"substance": "CEA268-277: known HLA-A24-restricted cancer antigen peptide derived from CEA [reference compound]", "values": [
      {"measurement": "induction of specific CTLs (cytotoxic activity, % Specific Lysis)", "setting": "[1]", "value": "induction of specific CTLs by stimulation with these known HLA-A24-resticted cancer antigen peptides was observed; also recorded: specific CTLs were induced"}
    ]},
    {"substance": "QYRIHTHGVF [peptide D, natural peptide, positions 285 to 294 of human WT1]", "values": [
      {"measurement": "immunogenicity (activity to induce CTLs; cytotoxic activity, % Specific Lysis)", "setting": "[1]", "value": "no specific CTL was induced"}
    ]},
    {"substance": "ALLPAVPSL [peptide K, natural peptide, positions 10 to 18 of human WT1]", "values": [
      {"measurement": "immunogenicity (activity to induce CTLs; cytotoxic activity, % Specific Lysis)", "setting": "[1]", "value": "have no immunogenicity; also recorded: no specific CTL was induced"}
    ]},
    {"substance": "NYMNLGATL [peptide J, altered peptide L, position 2 altered into tyrosine]", "values": [
      {"measurement": "immunogenicity (activity to induce CTLs; cytotoxic activity, % Specific Lysis)", "setting": "[1]", "value": "have a high immunogenicity; also recorded: specific CTLs were induced"}
    ]},
    {"substance": "RYPSCQKKF [peptide H]", "values": [
      {"measurement": "cross-reactivity of effector cells induced by the altered peptide to the natural peptide (cytotoxic activity)", "setting": "[2]; mice immunized with peptide H, targets pulsed with peptide H or natural peptide C, E/T ratio of 80", "value": "exhibited a cytotoxic activity against both cells pulsed with the altered and natural forms"}
    ]},
    {"substance": "RYPSSQKKF [peptide M]", "values": [
      {"measurement": "cross-reactivity of effector cells induced by the substituted peptide to the non-substituted peptide (cytotoxic activity)", "setting": "[2]", "value": "exhibited a cytotoxic activity against all of the cells pulsed with the substituted peptides"}
    ]},
    {"substance": "RYFPNAPYL [peptide F]", "values": [
      {"measurement": "immunogenicity (activity to induce CTLs; cytotoxic activity, % Specific Lysis)", "setting": "[1]", "value": "have a high immunogenicity; also recorded: specific CTLs were induced"}
    ]},
    {"substance": "RYPGVAPTL [peptide G]", "values": [
      {"measurement": "CTL-inducing activity (cytotoxic activity)", "setting": "[3]", "value": "CTLs were induced"},
      {"measurement": "cytotoxic activity of effector cells on lung cancer cell lines", "setting": "[4]", "value": "CTLs were induced"}
    ]},
    {"substance": "NQMNLGATL [peptide L, natural peptide, positions 239 to 247 of human WT1]", "values": [
      {"measurement": "immunogenicity (activity to induce CTLs; cytotoxic activity, % Specific Lysis)", "setting": "[1]", "value": "have no immunogenicity; also recorded: no specific CTL was induced"}
    ]},
    {"substance": "Arg-Tyr-Pro-Ser-Abu-Gln-Lys-Lys-Phe (RYPS[Abu]QKKF) [peptide O, peptide H with cysteine at position 5 substituted with α-aminobutyric acid]", "values": [
      {"measurement": "immunogenicity (cytotoxic activity, % Specific Lysis)", "setting": "[1]; Example 5: HLA-A24 expressing transgenic mouse immunized with peptide, effector and target cells mixed at various E/T ratios", "value": "immunogenicity equivalent to the non-substituted peptide, peptide H; also recorded: specific CTLs were induced"}
    ]},
    {"substance": "CEA652-660: known HLA-A24-restricted cancer antigen peptide derived from CEA [reference compound]", "values": [
      {"measurement": "induction of specific CTLs (cytotoxic activity, % Specific Lysis)", "setting": "[1]", "value": "induction of specific CTLs by stimulation with these known HLA-A24-resticted cancer antigen peptides was observed; also recorded: specific CTLs were induced"}
    ]},
    {"substance": "RYPSAQKKF [peptide N]", "values": [
      {"measurement": "cross-reactivity of effector cells induced by the substituted peptide to the non-substituted peptide (cytotoxic activity)", "setting": "[2]", "value": "exhibited a cytotoxic activity against all of the cells pulsed with the substituted peptides"}
    ]},
    {"substance": "RVPGVAPTL [peptide B]", "values": [
      {"measurement": "CTL-inducing activity (cytotoxic activity)", "setting": "[3]", "value": "CTLs were induced"},
      {"measurement": "cytotoxic activity of effector cells on lung cancer cell lines", "setting": "[4]", "value": "CTLs were induced"},
      {"measurement": "cytotoxic activity of effector cells on lung cancer cell lines", "setting": "[4]; listed as SEQ ID NO: 7", "value": "specifically injured only the RERF-LC-AI cells"}
    ]},
    {"substance": "AYPGCNKRYF [peptide E, natural peptide, positions 326 to 335 of human WT1]", "values": [
      {"measurement": "immunogenicity (activity to induce CTLs; cytotoxic activity, % Specific Lysis)", "setting": "[1]", "value": "no specific CTL was induced"}
    ]},
    {"substance": "AYLPAVPSL [peptide I, altered peptide K, position 2 altered into tyrosine]", "values": [
      {"measurement": "immunogenicity (activity to induce CTLs; cytotoxic activity, % Specific Lysis)", "setting": "[1]", "value": "have a high immunogenicity; also recorded: specific CTLs were induced"}
    ]},
    {"substance": "HER-2/neu780-788: HLA-A24-restriced peptide derived from human tumor antigen HER-2/neu (PYVSRLLGI) [reference compound]", "values": [
      {"measurement": "induction of specific CTLs (cytotoxic activity, % Specific Lysis)", "setting": "[1]", "value": "induction of specific CTLs by stimulation with HER-2/neu780-788 was observed"},
      {"measurement": "induction of specific CTLs (cytotoxic activity, % Specific Lysis)", "setting": "[1]; listed as HER2/neu780-788", "value": "specific CTLs were induced"}
    ]}
  ]
}
